Experimental data from patent US11524966B1 (Valo Early Discovery, Inc., priority 2017, dated 2022).
pIC50: −log10 of the molar value.

What follows are molecules tested against T1, USP25 (USP25-His6, Boston Biochem E-546) (Homo sapiens, UniProt Q9UHP3) (assay: Ubiquitin-Rhodamine 110 Assay for USP25 Activity, Example A-2). Conditions: Ubiquitin-Rhodamine 110 assay, Example A-2; read-out: USP25 A-2 IC50 range.
T1 construct: His6; purchased Boston Biochem E-546
T1 sequence (Q9UHP3 1-1055): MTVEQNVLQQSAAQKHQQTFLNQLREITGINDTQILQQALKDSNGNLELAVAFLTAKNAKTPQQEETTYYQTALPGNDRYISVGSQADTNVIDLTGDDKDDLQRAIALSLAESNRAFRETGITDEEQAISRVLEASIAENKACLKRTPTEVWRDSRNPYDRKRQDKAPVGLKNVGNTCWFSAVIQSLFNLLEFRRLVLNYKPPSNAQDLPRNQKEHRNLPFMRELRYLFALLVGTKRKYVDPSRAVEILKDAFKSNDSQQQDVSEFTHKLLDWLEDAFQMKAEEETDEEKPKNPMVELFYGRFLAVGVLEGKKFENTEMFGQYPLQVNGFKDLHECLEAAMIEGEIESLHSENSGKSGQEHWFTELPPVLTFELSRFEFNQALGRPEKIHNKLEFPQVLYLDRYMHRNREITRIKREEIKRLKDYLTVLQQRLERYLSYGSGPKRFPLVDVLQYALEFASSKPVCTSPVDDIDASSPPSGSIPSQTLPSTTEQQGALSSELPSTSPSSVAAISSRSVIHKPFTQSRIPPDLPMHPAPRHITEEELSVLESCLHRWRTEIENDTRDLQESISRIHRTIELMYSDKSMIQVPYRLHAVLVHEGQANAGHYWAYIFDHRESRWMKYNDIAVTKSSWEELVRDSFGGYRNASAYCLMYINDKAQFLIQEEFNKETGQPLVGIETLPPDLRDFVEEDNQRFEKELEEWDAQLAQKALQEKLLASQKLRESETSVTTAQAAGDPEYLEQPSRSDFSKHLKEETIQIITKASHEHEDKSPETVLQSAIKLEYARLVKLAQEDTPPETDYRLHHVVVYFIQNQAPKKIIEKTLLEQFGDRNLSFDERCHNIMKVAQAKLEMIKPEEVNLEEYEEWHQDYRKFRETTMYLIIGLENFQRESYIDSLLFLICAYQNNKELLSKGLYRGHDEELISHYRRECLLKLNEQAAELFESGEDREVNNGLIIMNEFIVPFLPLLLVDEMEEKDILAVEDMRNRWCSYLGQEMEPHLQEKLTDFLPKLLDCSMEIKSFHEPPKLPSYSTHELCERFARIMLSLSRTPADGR
Type: biochemical
How it was run: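 USP25-His6 (75 pM) was preincubated with compound (10-point, 3-fold series, 25 μM to 1.3 nM) for 30 min in 20 mM Tris-HCl pH 8.0, 3 mM BME, 0.03% BGG, 0.01% Triton X-100. Ub-Rh110 (25 nM, <<Km) was then added for 45 min at room temperature, citric acid-stopped, and fluorescence read at 485/535 nm.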
Molecule `Cc1ccc2c(N)c(C(=O)N[C@H]3CCc4nc(N5C[C@@H](N)[C@@H](C(F)F)C5)ccc4C3)sc2n1` [Example 346, 3-amino-N-[(6S)-2-[(3S,4S)-3-amino-4-(difluoromethyl)pyrrolidin-1-yl]-5,6,7,8-tetrahydroquinolin-6-yl]-6-methylthieno[2,3-b]pyridine-2-carboxamide] has a pIC50 of 5.70 to 6.70.
`Cc1ccc2c(N)c(C(=O)N[C@H]3CCc4nc(N5C[C@H](C(F)F)[C@@H](N)C5)ccc4C3)sc2n1` [Example 347, 3-amino-N-[(6S)-2-[(3R,4S)-3-amino-4-(difluoromethyl)pyrrolidin-1-yl]-5,6,7,8-tetrahydroquinolin-6-yl]-6-methylthieno[2,3-b]pyridine-2-carboxamide] was tested, and the pIC50 was 5.70 to 6.70.
Molecule `COC[C@H]1CN(c2ccc3c(n2)OC[C@H](NC(=O)c2sc4nc(C)cc(C)c4c2N)C3)C[C@H]1N` [Example 349, 3-amino-N-[(3R)-7-[(3S,4S)-3-amino-4-(methoxymethyl)pyrrolidin-1-yl]-2H,3H,4H-pyrano[2,3-b]pyridin-3-yl]-4,6-dimethylthieno[2,3-b]pyridine-2-carboxamide] has a pIC50 of 5.70 to 6.70.
`CN[C@H]1CN(c2ccc3c(c2)OC[C@H](NC(=O)c2sc4nc(C)ccc4c2N)C3)C[C@@H]1O` [Example 350, 3-amino-N-[(3R)-7-[(3S,4S)-3-hydroxy-4-(methylamino)pyrrolidin-1-yl]-3,4-dihydro-2H-1-benzopyran-3-yl]-6-methylthieno[2,3-b]pyridine-2-carboxamide] gave a pIC50 of 5.70 to 6.70.
For `CCn1ccc2cc(C(=O)N[C@H]3CCc4nc(N5C[C@H](OC)[C@@H](N)C5)ccc4C3)cnc21` [Example 353, N-[(6S)-2-[(3S,4S)-3-amino-4-methoxypyrrolidin-1-yl]-5,6,7,8-tetrahydroquinolin-6-yl]-1-ethyl-1H-pyrrolo[2,3-b]pyridine-5-carboxamide], the pIC50 was under 5.70.
Work on `Cc1cc(C)c2c(N)c(C(=O)N[C@H]3CCc4nc(N5CC6CCC(C5)N6)ccc4C3)sc2n1` [Example 354, 3-amino-N-[(6S)-2-{3,8-diazabicyclo[3.2.1]octan-3-yl}-5,6,7,8-tetrahydroquinolin-6-yl]-4,6-dimethylthieno[2,3-b]pyridine-2-carboxamide] yielded a pIC50 of 5.70 to 6.70.
Work on `CCn1cc(Cl)c2cc(C(=O)N[C@H]3COc4c(F)c(N5CC6CCC(C5)N6)cc(F)c4C3)nnc21` [Example 355, 5-chloro-N-[(3R)-7-{3,8-diazabicyclo[3.2.1]octan-3-yl}-5,8-difluoro-3,4-dihydro-2H-1-benzopyran-3-yl]-7-ethyl-7H-pyrrolo[2,3-c]pyridazine-3-carboxamide] yielded a pIC50 of 5.70 to 6.70.
With `CCn1cc(Cl)c2cc(C(=O)N[C@H]3COc4c(C#N)c(N5CC6CCC(C5)N6)cc(F)c4C3)nnc21` [Example 356, 5-chloro-N-[(3R)-8-cyano-7-{3,8-diazabicyclo[3.2.1]octan-3-yl}-5-fluoro-3,4-dihydro-2H-1-benzopyran-3-yl]-7-ethyl-7H-pyrrolo[2,3-c]pyridazine-3-carboxamide] the pIC50 was 5.70 to 6.70.
`Cc1ccc2c(N)c(C(=O)N[C@H]3CCc4nc(N5C[C@H](N)[C@H](OC(C)(F)F)C5)ccc4C3)sc2n1` [Example 357, 3-amino-N-[(6S)-2-[(3S,4R)-3-amino-4-(1,1-difluoroethoxy)pyrrolidin-1-yl]-5,6,7,8-tetrahydroquinolin-6-yl]-6-methylthieno[2,3-b]pyridine-2-carboxamide] was tested, and the pIC50 was 5.70 to 6.70.
In the case of `Cc1ccc2c(N)c(C(=O)N[C@H]3CCc4nc(N5C[C@@H](N)[C@@H](OC(C)(F)F)C5)ccc4C3)sc2n1` [Example 358, 3-amino-N-[(6S)-2-[(3R,4S)-3-amino-4-(1,1-difluoroethoxy)pyrrolidin-1-yl]-5,6,7,8-tetrahydroquinolin-6-yl]-6-methylthieno[2,3-b]pyridine-2-carboxamide], the pIC50 was under 5.70.
`Cc1ccc2c(N)c(C(=O)N[C@H]3CCc4nc(N5C[C@H](N)[C@@H](C(F)(F)F)C5)ccc4C3)sc2n1` [Example 363, 3-amino-N-[(6S)-2-[(3R,4S)-3-amino-4-(trifluoromethyl)pyrrolidin-1-yl]-5,6,7,8-tetrahydroquinolin-6-yl]-6-methylthieno[2,3-b]pyridine-2-carboxamide] gave a pIC50 of 5.70 to 6.70.
`Cc1cnc2c(N)c(C(=O)N[C@H]3CCc4nc(N5C[C@H](N)C6(COC6)C5)ccc4C3)sc2n1` [Example 365, 7-amino-N-[(6S)-2-[(8R)-8-amino-2-oxa-6-azaspiro[3.4]octan-6-yl]-5,6,7,8-tetrahydroquinolin-6-yl]-3-methylthieno[2,3-b]pyrazine-6-carboxamide] showed a pIC50 of 5.70 to 6.70.
`Cc1cnc2c(N)c(C(=O)N[C@H]3CCc4nc(N5C[C@@H](N)C6(COC6)C5)ccc4C3)sc2n1` [Example 366, 7-amino-N-[(6S)-2-[(8S)-8-amino-2-oxa-6-azaspiro[3.4]octan-6-yl]-5,6,7,8-tetrahydroquinolin-6-yl]-3-methylthieno[2,3-b]pyrazine-6-carboxamide] showed a pIC50 of under 5.70.
With `Cc1ccc2c(N)c(C(=O)N[C@H]3COc4cc(N5CC[C@H](N)C5)ccc4C3)sc2n1` [Example 369, 3-amino-N-[(3R)-7-[(3S)-3-aminopyrrolidin-1-yl]-3,4-dihydro-2H-1-benzopyran-3-yl]-6-methylthieno[2,3-b]pyridine-2-carboxamide] the pIC50 was 6.70 to 7.30.
With `Cc1ccc2c(N)c(C(=O)N[C@H]3CCc4nc(N5C[C@H](N)[C@]6(CCCO6)C5)ccc4C3)sc2n1` [Example 390, 3-amino-N-[(6S)-2-[(5S,9S)-9-amino-1-oxa-7-azaspiro[4.4]nonan-7-yl]-5,6,7,8-tetrahydroquinolin-6-yl]-6-methylthieno[2,3-b]pyridine-2-carboxamide] the pIC50 was under 5.70.
With `Cc1ccc2c(N)c(C(=O)N[C@H]3CCc4nc(N5C[C@@H](N)[C@]6(CCCO6)C5)ccc4C3)sc2n1` [Example 391, 3-amino-N-[(6S)-2-[(5S,9R)-9-amino-1-oxa-7-azaspiro[4.4]nonan-7-yl]-5,6,7,8-tetrahydroquinolin-6-yl]-6-methylthieno[2,3-b]pyridine-2-carboxamide] the pIC50 was 5.70 to 6.70.
For `Cc1ccc2c(N)c(C(=O)N[C@H]3CCc4nc(N5C[C@@H](N)[C@@]6(CCCO6)C5)ccc4C3)sc2n1` [Example 392, 3-amino-N-[(6S)-2-[(5R,9R)-9-amino-1-oxa-7-azaspiro[4.4]nonan-7-yl]-5,6,7,8-tetrahydroquinolin-6-yl]-6-methylthieno[2,3-b]pyridine-2-carboxamide], the pIC50 was under 5.70.
In the case of `Cc1ccc2c(N)c(C(=O)N[C@H]3CCc4nc(N5C[C@H](N)[C@@]6(CCCO6)C5)ccc4C3)sc2n1` [Example 393, 3-amino-N-[(6S)-2-[(5R,9S)-9-amino-1-oxa-7-azaspiro[4.4]nonan-7-yl]-5,6,7,8-tetrahydroquinolin-6-yl]-6-methylthieno[2,3-b]pyridine-2-carboxamide], the pIC50 was under 5.70.
`Cc1ccc2c(N)c(C(=O)N[C@H]3COc4cc(N5CC6CNC[C@](C)(C5)O6)cc(F)c4C3)sc2n1` [Example 413, 3-amino-N-[(3R)-5-fluoro-7-[(1R)-1-methyl-9-oxa-3,7-diazabicyclo[3.3.1]nonan-3-yl]-3,4-dihydro-2H-1-benzopyran-3-yl]-6-methylthieno[2,3-b]pyridine-2-carboxamide] was tested, and the pIC50 was 5.70 to 6.70.
With `Cc1ccc2c(N)c(C(=O)N[C@H]3COc4cc(N5CC6CNC[C@@](C)(C5)O6)cc(F)c4C3)sc2n1` [Example 414, 3-amino-N-[(3R)-5-fluoro-7-[(1S)-1-methyl-9-oxa-3,7-diazabicyclo[3.3.1]nonan-3-yl]-3,4-dihydro-2H-1-benzopyran-3-yl]-6-methylthieno[2,3-b]pyridine-2-carboxamide] the pIC50 was 5.70 to 6.70.
